Reference: patent US20230295157A1, “3-(1H-IMIDAZOL-2-YL)-2,3,8,8A-TETRAHYDROINDOLIZIN-5(1H)-ONE DERIVATIVES USEFUL AS FACTOR XIA INHIBITORS” (JANSSEN PHARMACEUTICA NV, priority 2020, published 2023)
Like-named read-outs stand apart in the source and are kept apart here.

Tests used:
human plasma kallikrein = human plasma kallikrein (Homo sapiens (Human), UniProt P03952); assay: Kallikrein inhibition assay (FLINT) utilizing a quenched AMC peptide substrate; type: biochemical; conditions: 30 min preincubation, read-out: Kallikrein Kin Inh IC50
Outline: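 Fluorogenic Z-Gly-Pro-Arg-AMC cleavage (50 μM substrate, 2 nM kallikrein, Tris pH 7.5, CaCl2, BSA, CHAPS, 2% DMSO) read kinetically at 340/440 nm for 30 min after 30-min compound pre-incubation. Compounds in 11-point 3-fold series from 1 μM; percent inhibition fitted to four-parameter equation for IC50.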

Factor XIa = Factor XIa (Homo sapiens (Human), UniProt P03951); assay: Factor XIa inhibition assay (FLINT) utilizing a fluorophore-quencher pair peptide substrate; type: biochemical; conditions: 30 min preincubation, kinetic reads over 30 min, read-out: FXIa Kin Inh IC50
Outline: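 FXIa ([…]) preincubated 30 min with compound (11-point 3-fold dilution, top 100 nM, 2% DMSO), then 15 μM quenched FXI Arg146-based peptide added; Tris pH 7.5, CaCl2, BSA, CHAPS. Fluorescence 485/520 nm read kinetically every 5 min over 30 min at RT; IC50 by 4-parameter fit.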

[1] = kinetic reads over 30 min, Z-Gly-Pro-Arg-AMC substrate 50 μM
[2] = 5Fam-[…]-K5Tamra substrate 15 μM
[3] = 5Fam-KLTRAETV-K5Tamra substrate 15 μM

human plasma kallikrein, sequence (P03952 391-638): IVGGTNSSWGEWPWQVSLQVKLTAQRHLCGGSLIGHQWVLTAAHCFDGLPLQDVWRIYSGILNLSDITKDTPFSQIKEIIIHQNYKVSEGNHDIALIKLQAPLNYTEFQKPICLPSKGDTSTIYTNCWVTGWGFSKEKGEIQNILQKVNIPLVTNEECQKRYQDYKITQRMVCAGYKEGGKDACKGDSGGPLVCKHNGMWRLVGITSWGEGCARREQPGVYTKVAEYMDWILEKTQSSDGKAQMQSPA
human plasma kallikrein, sequence (P03952 20-390 partner): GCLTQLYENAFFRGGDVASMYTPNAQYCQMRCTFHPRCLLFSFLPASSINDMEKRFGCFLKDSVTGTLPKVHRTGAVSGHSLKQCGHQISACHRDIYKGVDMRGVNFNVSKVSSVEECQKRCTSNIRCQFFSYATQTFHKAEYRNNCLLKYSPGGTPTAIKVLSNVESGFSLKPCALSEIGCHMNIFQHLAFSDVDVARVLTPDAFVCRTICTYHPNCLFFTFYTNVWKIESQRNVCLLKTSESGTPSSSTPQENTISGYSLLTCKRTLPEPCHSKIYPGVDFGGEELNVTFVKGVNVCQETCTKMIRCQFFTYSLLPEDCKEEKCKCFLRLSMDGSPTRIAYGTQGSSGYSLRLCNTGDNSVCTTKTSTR
Factor XIa, sequence (P03951 388-625): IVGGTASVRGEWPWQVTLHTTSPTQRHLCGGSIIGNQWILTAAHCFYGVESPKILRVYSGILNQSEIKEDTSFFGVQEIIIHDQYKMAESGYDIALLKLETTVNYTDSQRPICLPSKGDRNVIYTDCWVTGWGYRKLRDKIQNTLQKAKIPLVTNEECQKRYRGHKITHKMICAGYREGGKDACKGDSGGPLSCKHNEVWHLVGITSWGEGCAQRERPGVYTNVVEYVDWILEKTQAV
Factor XIa, sequence (P03951 19-387 partner): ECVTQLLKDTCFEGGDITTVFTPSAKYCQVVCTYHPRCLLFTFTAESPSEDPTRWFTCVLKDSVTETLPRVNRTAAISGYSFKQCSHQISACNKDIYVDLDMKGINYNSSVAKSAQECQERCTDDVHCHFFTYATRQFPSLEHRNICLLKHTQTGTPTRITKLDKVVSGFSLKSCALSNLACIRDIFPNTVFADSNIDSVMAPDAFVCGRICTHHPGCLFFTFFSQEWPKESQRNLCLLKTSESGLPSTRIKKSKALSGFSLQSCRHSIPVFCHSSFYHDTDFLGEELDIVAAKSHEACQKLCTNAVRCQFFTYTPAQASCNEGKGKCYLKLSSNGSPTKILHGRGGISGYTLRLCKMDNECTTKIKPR

Row | IC50 (human plasma kallikrein; [1]) | IC50 (Factor XIa; [2]) | IC50 (Factor XIa; [3]) | IC50 (human plasma kallikrein; μM, kinetic reads) | Structure (SMILES)
1 | 0.0026 µM | 0.3 nM |  |  | Nc1nccc(-c2[nH]c([C@@H]3CC[C@@H]4CC(c5cc(Cl)ccc5-n5cnnn5)=CC(=O)N43)nc2F)c1F (single isomer, unassigned) [Example 70, (3S*,8aR)-3-(5-(2-amino-3-fluoropyridin-4-yl)-4-fluoro-1H-imidazol-2-yl)-7-(5-chloro-2-(1H-tetrazol-1-yl)phenyl)-2,3,8,8a-tetrahydroindolizin-5(1H)-one]
2 | 0.0114 µM |  | 3.5 nM |  | COc1n[nH]cc1-c1cnc([C@@H]2CC[C@@H]3CC(c4c(-n5cnnn5)ccc(Cl)c4F)=CC(=O)N32)[nH]1 [Example 227, (3S,8aR)-7-(3-chloro-2-fluoro-6-(1H-tetrazol-1-yl)phenyl)-3-(5-(3-methoxy-1H-pyrazol-4-yl)-1H-imidazol-2-yl)-2,3,8,8a-tetrahydroindolizin-5(1H)-one]
3 | 0.095 µM |  | 14.3 nM |  | COC(=O)Nc1ccc(-c2cnc([C@@H]3CCC4CC(c5c(OCC(F)(F)F)ccc(Cl)c5F)=CC(=O)N43)[nH]2)cc1 (stereo partly drawn) [Example 324, Methyl (4-(2-((3S)-7-(3-Chloro-2-fluoro-6-(2,2,2-trifluoroethoxy)phenyl)-5-oxo-1,2,3,5,8,8a-hexahydroindolizin-3-yl)-1H-imidazol-5-yl)phenyl)carbamate]
4 | 0.0086 µM |  | 0.4 nM |  | Nc1ccc(-c2cnc([C@@H]3CC[C@@H]4CC(c5cc(Cl)ccc5-n5cnnn5)=CC(=O)N43)[nH]2)c(F)n1 [Example 123, (3S,8aR)-3-[5-(6-amino-2-fluoro-3-pyridyl)-1H-imidazol-2-yl]-7-[5-chloro-2-(tetrazol-1-yl)phenyl]-2,3,8,8a-tetrahydro-1H-indolizin-5-one]
5 |  |  | 282 nM | 1.1 µM | O=C1C=C(c2c(-n3cnnn3)ccc(Cl)c2F)CC2CC[C@@H](c3nc(-c4ncc[nH]4)c[nH]3)N12 (stereo partly drawn) [Example 333, (3S)-3-(1H,1′H-[2,4′-Biimidazol]-2′-yl)-7-(3-chloro-2-fluoro-6-(1H-tetrazol-1-yl)phenyl)-2,3,8,8a-tetrahydroindolizin-5(1H)-one]
6 | 0.0074 µM |  | 2.4 nM |  | O=C1C=C(c2c(-n3cnnn3)ccc(Cl)c2F)C[C@H]2CC[C@@H](c3ncc(-c4c[nH]c5cnccc45)[nH]3)N12 (single isomer, unassigned) [Example 19]
7 | 0.0686 µM |  | 4.2 nM |  | CC(=O)NCc1nccc(-c2cnc([C@@H]3CC[C@@H]4CC(c5c(-n6cnnn6)ccc(Cl)c5F)=CC(=O)N43)[nH]2)c1F [Example 13, N-[[4 [2-[(3S,8aR)-7-[3-Chloro-2-fluoro-6-(tetrazol-1-yl)phenyl]-5-oxo-2,3,8,8a-tetrahydro-1H-indolizin-3-yl]-1H-imidazol-5-yl]-3-fluoro-2-pyridyl]methyl]acetamide]
8 | 0.0149 µM |  | 3.3 nM |  | O=C(Nc1cnc(C(F)(F)F)cc1-c1cnc([C@@H]2CC[C@@H]3CC(c4c(-n5cnnn5)ccc(Cl)c4F)=CC(=O)N32)[nH]1)C1CC1 [Example 241, N-[4-[2-[(3S,8aR)-7-[3-Chloro-2-fluoro-6-(tetrazol-1-yl)phenyl]-5-oxo-2,3,8,8a-tetrahydro-1H-indolizin-3-yl]-1H-imidazol-5-yl]-6-(trifluoromethyl)-3-pyridyl]cyclopropanecarboxamide]
9 | 0.0009 µM |  | 0.2 nM |  | O=C(Nc1cnccc1-c1c[nH]c([C@@H]2CCC3CC(c4c(-n5cnnn5)ccc(Cl)c4F)=CC(=O)N32)n1)C1CC1 (stereo partly drawn) [Example 370, N-(4-(2-((3S)-7-(3-chloro-2-fluoro-6-(1H-tetrazol-1-yl)phenyl)-5-oxo-1,2,3,5,8,8a-hexahydroindolizin-3-yl)-1H-imidazol-4-yl)pyridin-3-yl)cyclopropanecarboxamide]
10 | 0.0056 µM |  | 0.6 nM |  | CC1(C)C[C@@H](c2ncc(-c3ccc(N)nc3Cl)[nH]2)N2C(=O)C=C(c3c(-n4cnnn4)ccc(Cl)c3F)CC21 (stereo partly drawn) [Example 349, (3S)-3-(5-(6-Amino-2-chloropyridin-3-yl)-1H-imidazol-2-yl)-7-(3-chloro-2-fluoro-6-(1H-tetrazol-1-yl)phenyl)-1,1-dimethyl-2,3,8,8a-tetrahydroindolizin-5(1H)-one]
11 | 0.0211 µM |  | 4.7 nM |  | O=C1C=C(c2c(-n3cnnn3)ccc(Cl)c2F)C[C@H]2CC[C@@H](c3ncc(-c4ccc(CO)nc4F)[nH]3)N12 (single isomer, unassigned) [Example 235]
12 | 0.0351 µM |  | 4.6 nM |  | C[C@H](O)c1nccc(-c2cnc([C@@H]3CC[C@@H]4CC(c5c(-n6cnnn6)ccc(Cl)c5F)=CC(=O)N43)[nH]2)c1F [Example 186, (3S,8aR)-7-(3-chloro-2-fluoro-6-(1H-tetrazol-1-yl)phenyl)-3-(5-(3-fluoro-2-((S)-1-hydroxyethyl)pyridin-4-yl)-1H-imidazol-2-yl)-2,3,8,8a-tetrahydroindolizin-5(1H)-one]
13 | 0.0278 µM | 8.4 nM |  |  | O=C1C=C(c2c(-n3cnnn3)ccc(Cl)c2F)C[C@H]2CC[C@@H](c3ncc(-c4ccnc(C(F)(F)CO)c4F)[nH]3)N12 (relative stereo) [Example 160, (3*S,8aR)-7-(3-chloro-2-fluoro-6-(1H-tetrazol-1-yl)phenyl)-3-(5-(2-(1,1-difluoro-2-hydroxyethyl)-3-fluoropyridin-4-yl)-1H-imidazol-2-yl)-2,3,8,8a-tetrahydroindolizin-5(1H)-one]
14 | 0.0035 µM |  | 1.3 nM |  | O=C1Cc2cc(-c3cnc([C@@H]4CC[C@@H]5CC(c6c(-n7cnnn7)ccc(Cl)c6F)=CC(=O)N54)[nH]3)ccc2N1 (single isomer, unassigned) [Example 284]
15 |  |  | > 100 nM | > 1 µM | Nc1ccncc1-c1c[nH]c([C@@H]2CC[C@H]3CC(c4c(-n5cnnn5)ccc(Cl)c4F)=CC(=O)N32)n1 [Example 272, (3S,8aS)-3-(4-(4-Aminopyridin-3-yl)-1H-imidazol-2-yl)-7-(3-chloro-2-fluoro-6-(1H-tetrazol-1-yl)phenyl)-2,3,8,8a-tetrahydroindolizin-5(1H)-one]
16 | 0.405 µM |  | 22.6 nM |  | O=C(O)c1ccc(-c2cnc([C@@H]3CCC4CC(c5c(-n6cnnn6)ccc(Cl)c5F)=CC(=O)N43)[nH]2)cc1F (stereo partly drawn) [Example 342, 4-[2-[(3S)-7-[3-Chloro-2-fluoro-6-(tetrazol-1-yl)phenyl]-5-oxo-2,3,8,8a-tetrahydro-1H-indolizin-3-yl]-1H-imidazol-4-yl]-2-fluoro-benzoic acid]
17 | 0.011 µM |  | 0.5 nM |  | Nc1ccc(-c2cnc([C@@H]3CC[C@H]4CC(c5c(-n6cnnn6)ccc(Cl)c5F)=CC(=O)N43)[nH]2)c(F)n1 [Example 359, (3S,8aS)-3-(5-(6-Amino-2-fluoropyridin-3-yl)-1H-imidazol-2-yl)-7-(3-chloro-2-fluoro-6-(1H-tetrazol-1-yl)phenyl)-2,3,8,8a-tetrahydroindolizin-5(1H)-one]
18 | 0.0038 µM |  | 2.9 nM |  | O=C1C=C(c2c(-n3cnnn3)ccc(Cl)c2F)C[C@H]2CC[C@@H](c3ncc(-c4ccnc(N5CCC5)c4F)[nH]3)N12 (single isomer, unassigned) [Example 111, (3*S,8aR)-3-(5-(2-(azetidin-1-yl)-3-fluoropyridin-4-yl)-1H-imidazol-2-yl)-7-(3-chloro-2-fluoro-6-(1H-tetrazol-1-yl)phenyl)-2,3,8,8a-tetrahydroindolizin-5(1H)-one]
19 | 0.0178 µM |  | 8.3 nM |  | NC(=O)c1nccc(-c2cnc([C@@H]3CC[C@@H]4CC(c5c(-n6cnnn6)ccc(Cl)c5F)=CC(=O)N43)[nH]2)c1F [Example 181, 4-(2-((3S,8aR)-7-(3-chloro-2-fluoro-6-(1H-tetrazol-1-yl)phenyl)-5-oxo-1,2,3,5,8,8a-hexahydroindolizin-3-yl)-1H-imidazol-5-yl)-3-fluoropicolinamide]
20 | 0.0592 µM |  | 35.2 nM |  | O=C1C=C(c2cc(Cl)ccc2-n2cnnn2)C(F)(F)C2CC[C@@H](c3ncc(-c4ccnc(CO)c4F)[nH]3)N12 (stereo partly drawn) [Example 56, (3S)-7-(5-chloro-2-(1H-tetrazol-1-yl)phenyl)-8,8-difluoro-3-(5-(3-fluoro-2-(hydroxymethyl)pyridin-4-yl)-1H-imidazol-2-yl)-2,3,8,8a-tetrahydroindolizin-5(1H)-one]
21 | 0.0086 µM |  | 0.6 nM |  | [2H]c1cc(N)nc(F)c1-c1cnc([C@@H]2CC[C@@H]3CC(c4c(-n5cnnn5)ccc(Cl)c4F)=CC(=O)N32)[nH]1 [Example 150, (3S,8aR)-3-[5-(6-amino-4-deuterio-2-fluoro-3-pyridyl)-1H-imidazol-2-yl]-7-[3-chloro-2-fluoro-6-(tetrazol-1-yl)phenyl]-2,3,8,8a-tetrahydro-1H-indolizin-5-one]
22 | 0.0018 µM |  | 0.7 nM |  | O=C1CCc2cc(-c3[nH]c([C@@H]4CC[C@@H]5CC(c6cc(Cl)ccc6-n6cc(C(F)(F)F)nn6)=CC(=O)N54)nc3F)ccc2N1 [Example 81, 6-[2-[(3S,8aR)-7-[5-chloro-2-[4-(trifluoromethyl)triazol-1-yl]phenyl]-5-oxo-2,3,8,8a-tetrahydro-1H-indolizin-3-yl]-4-fluoro-1H-imidazol-5-yl]-3,4-dihydro-1H-quinolin-2-one]
